Reference: paper PMC12077799, “Fragment-based drug discovery for transthyretin kinetic stabilisers using a novel capillary zone electrophoresis method” (PLOS One, 2025)
Read-outs that look alike come from different tables or passages of the source.

Tests used:
[1] = biological target: T1, TTR in undiluted normal human reference plasma (Homo sapiens, UniProt P02766); test: 125I-T4 displacement assay in neat normal human plasma; type: binding; conditions: read-out: Mean 125I-T4 IC50 ± SD (N = 3); neat normal human plasma; 4-parameter logistic fit
T1 construct: The TTR in plasma was immunoprecipitated by sheep anti-human prealbumin polyclonal antibody; tissue Precision Biologic Inc., Nova Scotia, Canada
From the text: The assay was adapted from one described previously. Briefly, test ligand and ^125I-T4 (Perkin Elmer Inc., Waltham, MA) were mixed with undiluted normal human reference plasma (Precision Biologic Inc., Nova Scotia, Canada). The TTR in plasma was immunoprecipitated by sheep anti-human prealbumin polyclonal antibody (The Binding Site Group Ltd., Birmingham, UK). The immunoprecipitate was washed with buffer and their radioactivity measured with a 2470 WIZARD automatic gamma counter (Perkin Elmer Inc., Waltham, MA). […] Percentage of total radioligand binding for samples of different ligand concentration was then calculated as follows: […]
To calculate IC50 values, percentage of total radioligand binding at different concentration points were entered in SigmaPlot™ 11.0. Titration curves were done in triplicates with a minimum of 5 data points fitted by 4-Parameter Logistic Function.

[2] = biological target: T2, TTR (Homo sapiens, UniProt P02766); test: Isothermal titration calorimetry (ITC); type: binding; conditions: for Kd: 25 °C, PBS pH 7.8, 3% DMSO
T2 construct: purchased SCIPAC (Sittingbourne, Kent, UK) P171-1
Method: All ITC experiments were conducted on an iTC200 calorimeter (GE Healthcare), and the settings were 25 °C, stir at 1000 RPM, 1–2 μL injection spaced with 100–150 seconds, reference power: 6 μcal/sec. Isotherms were fitted using ORIGIN 7 software (OriginLab, MA, USA). To prepare TTR ITC protein solution (5 mL), purified and freeze-dried human TTR was weighted and dissolved in 310 μL of pure water. The reconstituted protein solution was then desalted by spin column (Bio-Rad, Bio-Gel P6) and the eluted volume was transferred to a 15mL falcon tube. The protein solution was further diluted with 10x Phosphate Buffered Saline (PBS, 500 μL), DMSO (150 μL) and water, (f/c: 4.3 mM Na2HPO4, 137 mM NaCl, 2.7 mM KCl, 1.47 mM KH2PO4, 3% DMSO v/v, TTR 19.35–25 μM, pH 7.8). UV A260/280 was measured to obtain the actual protein concentration using a calculated extinction coefficient of 18450 M^-1 cm^-1. To prepare ligand ITC solution (1 mL), 30 μL of ligand stock in DMSO was diluted with 10x PBS (100 μL) and water (f/c: 4.3 mM Na2HPO4, 137 mM NaCl, 2.7 mM KCl, 1.47 mM KH2PO4, 3% DMSO v/v, Ligand 280–600 μM, pH 7.8).

[3] = biological target: T3, Human transthyretin (TTR) thyroxine binding sites (Homo sapiens, UniProt P02766); test: TTR CZE Free Probe Peak Height Restoration (FPPHR) assay, 8-ANS displacement; conditions: for FPPHR % tested at 10 µM: compound 10 µM in Running Buffer; for FPPHR % tested at 10 µM / FPPHR % at 50 μM: 10% minimum for a binder; for FPPHR % at 50 μM: compound 50 μM in Running Buffer
T3 construct: purchased SCIPAC (Sittingbourne, Kent, UK) P171-1
Method: CZE assays development and fragment screening were performed on a Beckman P/ACE MDQ capillary electrophoresis system (Beckman Coulter Inc., Brea, CA) operated by 32 Karat™ software. All capillaries (Polymicro Technologies, Phoenix, AZ) used were internally coated with polyvinyl alcohol and of around 30 cm in length, 75 microns in internal diameter. Capillary temperature was maintained at 20 °C by recirculating fluorinated fluid coolant during electrophoresis. Sample trays and buffer trays temperature were maintained at 4°C and ambient respectively. For every electrophoretic run, the capillary was pressure rinsed and prefilled with electrophoresis buffer also known as background electrolyte (termed as Running Buffer hereafter) before injection. After each electrophoretic run, the capillary was rinsed with Running Buffer and H2O by pressure (20 psi for 1 minute). Three Running Buffers (RB), A: 20 mM Tris pH 7.5, 1 mM KCl, 1.62 mM NaCl; B: 20 mM HEPES pH 7.0, 2 mM CaCl2 and C: 20 mM HEPES pH 7.0, 2 mM CaCl2, 1% DMSO were used. All CE traces were analysed by 32Karat™ Software with a built-in automatic peak integration algorithm.
Control 1 Inject Buffer (IB) containing 30 μM 8-ANS was prepared by mixing 1 μL of 3 mM 8-ANS DMSO stock with 99 μL of Running Buffer B in a 0.2 mL PCR tube. Control 2 Inject Buffer was prepared by mixing 1μL of 3 mM 8-ANS DMSO stock with 20 μL of 100 μM tetrameric TTR stock in Running Buffer B and 79 μL of Running Buffer B. The final concentrations (f/c) were 8-ANS 30 μM, TTR 20 μM and 1% DMSO v/v.
The maximum Free Probe Peak Height (Control 1 Peak Height) was determined by Outlet Injection (see Fig 1) of Control 1 with an injection pressure of 0.5 psi for 5 seconds (equivalent to ≈ 20–30 nL). An identical injection of Control 2 provides the minimum Free Probe Peak Height (Control 2 Peak Height) enabling calculation of % of bound and unbound, i.e., free 8-ANS. To determine the 8-ANS peak height in Control 1 and Control 2, the capillary was prefilled with Buffer C and electrophoresis carried out at 10 kV (Normal Polarity, Fig 1) with UV monitoring at 230 nm. For displacement analysis, ligand DMSO stock was diluted in Buffer B and used to fill the capillary as the Running Buffer. Electrophoresis commenced after injection of Control 2, thus the injected 8-ANS-TTR complex migrates inside a capillary filled with the test ligand. The observed 8-ANS peak height is defined as Sample Peak Height and the displaced 8-ANS can be calculated as:
\% of Free Probe Peak Height Restoration= Sample Peak Height−Control 2 Peak Height/Control 1 Peak Height−Control 2 Peak Height

[4] = biological target: T4, Human transthyretin (TTR) (Homo sapiens, UniProt P02766); test: Co-crystallisation of TTR-ligand complex, X-ray hit confirmation; type: binding; conditions: fragment seen in ligand-omitted difference density at >= 2σ in one or both binding sites; full or partial density
T4 construct: purchased SCIPAC (Sittingbourne, Kent, UK) P171-1
Method: Crystals were grown by vapor diffusion using a published crystallisation cocktail (100 mM HEPES pH 7.5, 200 mM CaCl2, 28% v/v PEG400) at 21 °C [29]. The hanging drop contained 1 μL of crystallisation cocktail, 1 μL of diluted ligand and 1 μL of TTR protein solution (85 μM). […] Crystals were harvested and flash cooled in a N2 cryostream or dipped into liquid ethane without cryoprotectant. Data was collected at Diamond Light Source (Oxon, UK) beamline I24, I04 or I04-1 (Pilatus 6M or ADSC Q315) or the European Synchrotron Radiation Facility (ESRF, Grenoble, France) beamline ID29 (Pilatus 6M-F) or in-house (Bruker X8 Diffractometer with APEXII CCD detector). Crystal unit cell was initially indexed by software MOSFLM [30] and LABELIT [31] within the EDNA [32] automatic data processing workflow. Diffraction image integration was performed by XDS [33] and reflection intensities were scaled by SCALA [34] or by PROTEUM2 if collected in-house. Phases were obtained by molecular replacement method using PHASER [35], 1DVQ from the Protein Data Bank (PDB) was used as the search model. Atomic positions of the initial model were refined by REFMAC5 [36]. Model building and ligand fitting was completed using COOT [37]. Model graphics were generated using CCP4MG [38]. Crystallographic statistics of all structures can be found in S4 Table.

[5] = biological target: T3, Human transthyretin (TTR) thyroxine binding sites; test: TTR CZE Free Probe Peak Height Restoration (FPPHR) assay, 8-ANS displacement; conditions: 30 μM 8-ANS with 20 μM TTR
[6] = biological target: TTR thyroxine binding sites; conditions: cited from earlier work
[7] = N = number of non-hydrogen atoms

IC50 [1] [µM]	Kd ([2]; read-out: ITC Kd1 ± SD (N = 3)) [µM]	Kd ([2]; read-out: ITC Kd2 ± SD (N = 3)) [µM]	Kd1 LE (Ligand Efficiency, ΔG/N) [2, 7] [kcal/mol]	Kd2 LE (Ligand Efficiency, ΔG/N) [2, 7] [kcal/mol]	FPPHR % tested at 10 µM [3] [% tested at 10 µM]	FPPHR % at 50 μM [3]	Confirmed by X-ray [4]	Compound	% of 8-ANS bound to TTR, deduced from free 8-ANS peak heights ([3]; 30 μM 8-ANS with 20 μM TTR)	% of 8-ANS bound to TTR, deduced from free 8-ANS peak areas [5] [%]	Kd ([6]; read-out: Kd1, 8-ANS at TTR thyroxine binding sites) [µM]	Kd ([6]; read-out: Kd2, 8-ANS at TTR thyroxine binding sites) [µM]	Kd ([6]; read-out: previously reported Kd values) [µM]
18.9 ± 6.14	0.064	0.91	0.58	0.48	33.32	59.77%	Yes 9H7K	Cc1n[nH]c(C)c1-c1cccc2cccnc12 [Compound 94320297]	–	–	–	–	–
–	–	–	–	–	–	–	–	O=S(=O)(O)c1cccc2cccc(Nc3ccccc3)c12 [Compound 8-ANS, 8-Anilino-1-Naphthalenesulfonic acid]	around 60%	~35	1.05	4.79	1 to 5
100 ± 11	–	–	–	–	–	36.17% tested at 50 µM	Yes 9H7L	Nc1n[nH]c2nccc(-c3ccccc3)c12 [CDS014361]	–	–	–	–	–
238 ± 118	–	–	–	–	17.07	–	Yes 9H7N	Cc1n[nH]c(-c2ccnc3ccccc23)n1 [Compound 71575026]	–	–	–	–	–
